In one assay the test system is N2a. The assay is described as follows: Cytotoxicity against mouse Neuro2a cells assessed as inhibition of cell viability incubated for 24 hrs by MTT assay. Type of assay: cell-based.
The test system of another assay is DLD-1. The assay can be described thus: Cytotoxicity against human DLD1 cells assessed as inhibition of cell viability incubated for 24 hrs by MTS assay. The format is cell-based. The note with it: DLD-1, 24 h.
The next assay concerns HT-29. The assay can be described thus: Cytotoxicity against human HT-29 cells assessed as inhibition of cell viability incubated for 24 hrs by MTS assay. The format is cell-based. The following applies: HT-29, 24 h.
Assay [1] concerns Peritoneal macrophage. The assay can be described thus: Induction of ROS generation in BALB/c mouse peritoneal macrophages at 10 uM incubated for 1 hr by H2DCF-DA staining based fluorescence analysis relative to control. The format is functional.
The subject of assay [2] is Peritoneal macrophage. The assay is described as follows: Induction of ROS generation in BALB/c mouse peritoneal macrophages at 1 uM incubated for 1 hr by H2DCF-DA staining based fluorescence analysis relative to control. Type of assay: functional.

Structures are written as SMILES. pIC50: −log10 of the molar value.

Turning to `CC(=O)O[C@H]1CC[C@@]2(C)[C@@H](CC[C@]3(C)C(=O)[C@@]4(C)OC(=O)C[C@@]234)C1(C)C`, the pIC50 with N2a, in the assay with DLD-1 and with HT-29 was < 4.40 in each case. Moreover, the Activity in the assay with Peritoneal macrophage [1] worked out at 90%; with Peritoneal macrophage [2], 73%.

As for `CC1(C)C(=O)CC[C@@]2(C)[C@H]1CC[C@]1(C)C(=O)[C@@]3(C)OC(=O)C[C@@]213`, the pIC50 in the assay on N2a, with DLD-1 and with HT-29 was < 4.40 throughout. The results for the Activity in the assay with Peritoneal macrophage [1] and with Peritoneal macrophage [2] were 93% and 55%, respectively.

The record behind these values is ChEMBL document CHEMBL4414630, “Cyclobutastellettolides A and B, C19 Norterpenoids from a Stelletta sp. Marine Sponge” (J Nat Prod, 2019).
